Experimental data: patent US20230203043A1, “NOVEL IMIDAZOPYRAZINE DERIVATIVES” (Hoffmann-La Roche Inc., priority 2020, published 2023)
Where a name gives a salt, the structure may show the parent alone. Read-outs that look alike come from different tables or passages of the source.

Tested on: Acinetobacter baumannii ATCC17961
Test: Antimicrobial susceptibility testing: 90% growth inhibitory concentration (IC90) determination in Iso-Sensitest broth, OD600 growth
Type: cell-based
Outline: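 Twofold compound dilutions (e.g. 50 to 0.097 μM final) in Iso-Sensitest broth with ~5×10^(5) CFU/ml, 35±2 °C. OD600 read every 20 min over 16 h; IC90 from growth inhibition during logarithmic phase.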

[1] = Acinetobacter baumannii, ATCC17961, 16 h, read-out: A. baumannii ATCC 17961 IC90 (uM), strain ATCC 17961, OD600 growth over 16 h
[2] = Acinetobacter baumannii, ATCC17961, 16 h, strain ATCC 17961, OD600 growth over 16 h, read-out: A. baumannii ATCC 17961 IC90
[3] = strain ATCC 17961, OD600 growth over 16 h, read-out: A. baumannii ATCC 17961 IC90

Row | IC90 [2] | SMILES | IC90 [1] | also measured
1 |  | CCc1cc(Nc2nccn3c(-c4cn(C5CCC5)nc4C(F)(F)F)cnc23)ccc1C(=O)NCCOCCN [Example 273, N-[2-(2-aminoethoxy)ethyl]-4-[[3-[1-cyclobutyl-3-(trifluoromethyl)pyrazol-4-yl]imidazo[1,2-a]pyrazin-8-yl]amino]-2-ethylbenzamide formate] | 0.087 µM | 
2 | 0.26 µM | N[C@@H]1CC[C@H](C(=O)N2CCN(C(=O)c3ccc(Nc4nccn5c(-c6cn(CC7CC7)nc6C(F)(F)F)cnc45)cc3F)CC2)C1 [Example 808, (4-((1S,3R)-3-aminocyclo-pentane-1-carbonyl)piperazin-1-yl)(4-((3-(1-(cyclopropyl-methyl)-3-(trifluoromethyl)-1H-pyrazol-4-yl)imidazo[1,2-a]pyrazin-8-yl)amino)-2-fluorophenyl) methanone hydrochloride] |  | 
3 | 0.21 µM | N#CCn1cc(-c2cnc3c(Nc4ccc(C(=O)N5CCN(C(=O)CN)CC5)c(F)c4)nccn23)c(C(F)(F)F)n1 [Example 813, 2-(4-(8-((3-fluoro-4-(4-glycylpiperazine-1-carbonyl)phenyl)amino)imidazo [1,2-a]pyrazin-3-yl)-3-(trifluoromethyl)-1H-pyrazol-1-yl)acetonitrile hydrochloride] |  | 
4 | 0.222 µM | O=C(c1ccc(Nc2nccn3c(-c4cn(C(F)F)nc4C(F)(F)F)cnc23)cc1Cl)N1CC2(CNC2)C1 [Example 79, [2-chloro-4-[[3-[1-(difluoromethyl)-3-(trifluoromethyl)pyrazol-4-yl]imidazo[1,2-a]pyrazin-8-yl]amino]phenyl]-(2,6-diazaspiro[3.3]heptan-2-yl)methanone] |  | 
5 |  | NC1CC(NC(=O)c2ccc(Nc3nccn4c(-c5c[nH]nc5C(F)(F)F)cnc34)cc2Cl)C1 (stereo not shown) [Example 403, N-(3-aminocyclobutyl)-2-chloro-4-[[3-[3-(trifluoromethyl)-1H-pyrazol-4-yl]imidazo[1,2-a]pyrazin-8-yl]amino]benzamide] |  | IC90 [3]: 0.398 µM
6 | 1.06 µM | Cc1cc(Nc2nccn3c(-c4c[nH]nc4C(F)(F)F)cnc23)cc(F)c1C(=O)NCCCCCN [Example 81, N-(5-aminopentyl)-2-fluoro-6-methyl-4-[[3-[3-(trifluoromethyl)-1H-pyrazol-4-yl]imidazo[1,2-a]pyrazin-8-yl]amino]benzamide] |  | 
7 | 0.218 µM | CCc1cc(Nc2nccn3c(-c4cn(CC#N)nc4C(F)(F)F)cnc23)ccc1C(=O)NCC(=O)N1CCNCC1 [Example 499, 4-[[3-[1-(cyanomethyl)-3-(trifluoromethyl)pyrazol-4-yl]imidazo[1,2-a]pyrazin-8-yl]amino]-2-ethyl-N-(2-oxo-2-piperazin-1-yl-ethyl)benzamide formate] |  | 
8 |  | CCc1cc(Nc2nccn3c(-c4cn(CC(F)F)nc4C(F)(F)F)cnc23)ccc1C(=O)N1CC2CC1CN2 (stereo not shown) [Example 561, (2,5-diazabicyclo [2.2.1]heptan-2-yl)(4-((3-(1(2,2-difluoroethyl)-3-(trifluoromethyl)-1H-pyrazol-4-yl)imidazo[1,2-a]pyrazin-8-yl)amino)-2-ethylphenyl) methanone formate] | 0.909 µM | 
9 |  | Cc1cc(Nc2nccn3c(-c4cn(CC#N)nc4C(F)(F)F)cnc23)ccc1C(=O)NCC(=O)NCCN [Example 760, N-[2-(2-aminoethylamino)-2-oxo-ethyl]-4-[[3-[1-(cyanomethyl)-3-(trifluoromethyl)pyrazol-4-yl]imidazo[1,2-a]pyrazin-8-yl]amino]-2-methyl-benzamide formate] | 0.718 µM | 
10 |  | CCc1cc(Nc2nccn3c(-c4cn(CCN5CCOCC5)nc4C(F)(F)F)cnc23)ccc1C(=O)NCCOCCN [Example 317, N-[2-(2-aminoethoxy)ethyl]-2-ethyl-4-[[3-[1-(2-morpholin-4-ylethyl)-3-(trifluoromethyl)pyrazol-4-yl]imidazo[1,2-a]pyrazin-8-yl]amino]benzamide formate] | 1.88 µM | 
11 | 0.193 µM | CCc1cc(Nc2nccn3c(-c4cn(CC#N)nc4C(F)(F)F)cnc23)ccc1C(=O)NCCNC(=O)[C@H]1C[C@@H](N)C1 [Example 498, cis-N-(2-((1s,3s)-3-aminocyclobutane-1-carboxamido)ethyl)-4-((3-(1-(cyanomethyl)-3-(trifluoromethyl)-1H-pyrazol-4-yl)imidazo[1,2-a]pyrazin-8-yl)amino)-2-ethylbenzamide formate] |  | 
12 | 0.254 µM | NCC(=O)N1CC2(C1)CN(C(=O)c1ccc(Nc3nccn4c(-c5cn(CC(F)F)nc5C(F)(F)F)cnc34)cc1Cl)C2 [Example 651, 2-amino-1-(6-(2-chloro-4-((3-(1-(2,2-difluoroethyl)-3-(trifluoromethyl)-1H-pyrazol-4-yl)imidazo[1,2-a]pyrazin-8-yl)amino)benzoyl)-2,6-diazaspiro[3.3]heptan-2-yl)ethan-1-one] |  | 
13 |  | C#CCNCCCNC(=O)c1c(C)cc(Nc2nccn3c(-c4cn(CC#N)nc4C(F)(F)F)cnc23)cc1F [Example 76, 4-[[3-[1-(cyanomethyl)-3-(trifluoromethyl)pyrazol-4-yl]imidazo[1,2-a]pyrazin-8-yl]amino]-2-fluoro-6-methyl-N-[3-(prop-2-ynylamino)propyl] benzamide] |  | IC90 [3]: 2.09 µM
14 | 0.63 µM | O=C(NC1CCN(C(=O)[C@@H]2C[C@@H](O)CN2)CC1)c1ccc(Nc2nccn3c(-c4c[nH]nc4C(F)(F)F)cnc23)cc1Cl [Example 381, 2-chloro-N-[1-[(2S,4R)-4-hydroxypyrrolidine-2-carbonyl]piperidin-4-yl]-4-[[3-[3-(trifluoromethyl)-1H-pyrazol-4-yl]imidazo[1,2-a]pyrazin-8-yl]amino]benzamide] |  | 
15 |  | CCc1cc(Nc2nccn3c(-c4cn(CC)nc4C(F)(F)F)cnc23)ccc1C(=O)NCCOCCN [Example 31, N-[2-(2-aminoethoxy)ethyl]-2-ethyl-4-[[3-[1-ethyl-3-(trifluoromethyl)pyrazol-4-yl]imidazo[1,2-a]pyrazin-8-yl]amino]benzamide formate] | 0.175 µM | 
16 |  | CCc1cc(Nc2nccn3c(-c4cn(CCC(C)C)nc4C(F)(F)F)cnc23)ccc1C(=O)NCCOCCN [Example 28, N-[2-(2-aminoethoxy)ethyl]-2-ethyl-4-[[3-[1-(3-methylbutyl)-3-(trifluoromethyl)pyrazol-4-yl]imidazo[1,2-a]pyrazin-8-yl]amino]benzamide formate] | 0.369 µM | 
17 | 0.144 µM | CCc1cc(Nc2nccn3c(-c4cn(CC(F)F)nc4C(F)(F)F)cnc23)ccc1C(=O)NCCOCCN1CCCC1 [Example 621, 4-((3-(1-(2,2-difluoroethyl)-3-(trifluoromethyl)-1H-pyrazol-4-yl)imidazo[1,2-a]pyrazin-8-yl)amino)-2-ethyl-N-(2-(2-(pyrrolidin-1-yl)ethoxy)ethyl) benzamide formate] |  | 
18 |  | C=CCn1cc(-c2cnc3c(Nc4ccc(C(=O)NCCOCC(C)N)c(CC)c4)nccn23)c(C(F)(F)F)n1 (stereo in doubt) [Example 146, N-[2-[(2S)-2-aminopropoxy]ethyl]-2-ethyl-4-[[3-[1-prop-2-enyl-3-(trifluoromethyl)pyrazol-4-yl]imidazo[1,2-a]pyrazin-8-yl]amino]benzamide] |  | IC90 [3]: 0.028 µM
19 |  | C[C@@H](NC(=O)c1ccc(Nc2nccn3c(-c4c[nH]nc4C(F)(F)F)cnc23)cc1Cl)C(=O)N1CC[C@@H](N)C1 [Example 97, N-[(2R)-1-[(3R)-3-aminopyrrolidin-1-yl]-1-oxopropan-2-yl]-2-chloro-4-[[3-[3-(trifluoromethyl)-1H-pyrazol-4-yl]imidazo[1,2-a]pyrazin-8-yl]amino]benzamide formate] | 1.7 µM | 
20 | 0.593 µM | CCc1cc(Nc2nccn3c(-c4cn(CCF)nc4C(F)(F)F)cnc23)ccc1C(=O)N1CCN(C(=O)C2CCNCC2)CC1 [Example 71, [2-ethyl-4-[[3-[1-(2-fluoroethyl)-3-(trifluoromethyl)pyrazol-4-yl]imidazo[1,2-a]pyrazin-8-yl]amino]phenyl]-[4-(piperidine-4-carbonyl)piperazin-1-yl]methanone] |  | 
21 | 0.359 µM | NC12CC(NC(=O)c3ccc(Nc4nccn5c(-c6cn(CC(F)F)nc6C(F)(F)F)cnc45)cc3Cl)(C1)C2 [Example 87, N-(3-amino-1-bicyclo[1.1.1]pentanyl)-2-chloro-4-[[3-[1-(2,2-difluoroethyl)-3-(trifluoromethyl)pyrazol-4-yl]imidazo[1,2-a]pyrazin-8-yl]amino]benzamide] |  | 
22 | 0.102 µM | C#CCn1cc(-c2cnc3c(Nc4ccc(C(=O)NCCOC[C@@H](C)N)c(CC)c4)nccn23)c(C(F)(F)F)n1 [Example 149, N-[2-[(2R)-2-aminopropoxy]ethyl]-2-ethyl-4-[[3-[1-prop-2-ynyl-3-(trifluoromethyl)pyrazol-4-yl]imidazo[1,2-a]pyrazin-8-yl]amino]benzamide] |  | 
23 |  | Cc1cc(Nc2nccn3c(-c4c[nH]nc4C(F)(F)F)cnc23)ccc1C(=O)NCCNC(=O)[C@@H]1C[C@@H](O)CN1 [Example 444, formic acid; (2S,4R)-4-hydroxy-N-[2-[[2-methyl-4-[[3-[3-(trifluoromethyl)-1H-pyrazol-4-yl]imidazo[1,2-a]pyrazin-8-yl]amino]benzoyl]amino]ethyl]pyrrolidine-2-carboxamide] | 1.43 µM | 
24 |  | CCc1cc(Nc2nccn3c(-c4cn(CC#N)nc4C(F)(F)F)cnc23)ccc1C(=O)N[C@H](C)C(=O)N1CC[C@H](N)C1 [Example 736, N-[(1R)-2-[(3S)-3-aminopyrrolidin-1-yl]-1-methyl-2-oxo-ethyl]-4-[[3-[1-(cyanomethyl)-3-(trifluoromethyl)pyrazol-4-yl]imidazo[1,2-a]pyrazin-8-yl]amino]-2-ethyl-benzamide formate] | 0.49 µM | 
25 |  | O=C(c1ccc(Nc2nccn3c(-c4cn(Cc5ncccn5)nc4C(F)(F)F)cnc23)cc1Cl)N1CCNCC1 [Example 169, [2-chloro-4-[[3-[1-(pyrimidin-2-ylmethyl)-3-(trifluoromethyl)pyrazol-4-yl]imidazo[1,2-a]pyrazin-8-yl]amino]phenyl]-piperazin-1-ylmethanone formate] | 0.392 µM | 
